Solubility data for 1 compound are collected here from patent publication US8557995B2, “Solid dispersions containing kinase inhibitors” (AbbVie Inc., priority 2010, dated 2013).

A short description of this series: solubility in water. Format: physicochemical. The following applies: pH 7.4, aqueous buffer. From the text:
Examples of such active ingredients are, for example, Biopharmaceutics Classification System (BCS) Class IV drug substances that are characterized by low solubility and low permeability (see “Waiver of in vivo bioavailability and bioequivalence studies for immediate-release solid oral dosage forms based on a biopharmaceutics classification system”, U.S. Department of Health and Human Services, Food and Drug Administration, Center for Drug Evaluation and Research (CDER), August 2000). It will be recognized that aqueous solubility of many compounds is pH-dependent; in the case of such compounds the solubility of interest herein is at a physiologically relevant pH, for example a pH of about 1 to about 8.

With `Nc1ncc(-c2cnn(CCO)c2)c2scc(-c3ccc(NC(=O)Nc4cccc(F)c4)cc3)c12` [N-(4-{4-amino-7-[1-(2-hydroxyethyl)-1H-pyrazol-4-yl]thieno[3,2-c]pyridin-3-yl}phenyl)-N′-(3-fluorophenyl)urea], the solubility is under 0.03 µg/mL.

One may read the solubility as the concentration that dissolves in the medium under given conditions. Read a high solubility as much dissolved substance.
